In patent US11407760B2, “Dioxinoquinoline compounds, preparation method and uses thereof” (BEIJING SCITECH-MQ PHARMACEUTICALS LIMITED, priority 2018, dated 2022) one finds IC50 data, which are given here for 23 compounds.

This experiment relates to MHCC97H cells. In words: Inhibitory activity on the proliferation of MHCC97H cells (CCK-8). The class given is cell-based. Conditions: Homo sapiens, MHCC97H cell proliferation, 72 hours of incubation. How it is done:
Biological Example 3. Assay of the Inhibitory Activity of Small Molecular Compounds on the Proliferation of MHCC97H Cells
The specific steps of the assay are as follows:
1. Dilution of compounds: a total of 9 concentrations were obtained using a 3-fold gradient dilution from the highest concentration of 5000 nM (the maximum final concentration of the drug used in this assay was 5000 nM, and the minimum final concentration was 0.76 nM).
2. MHCC97H cells were collected, then transferred to a 15 mL centrifuge tube, and centrifuged at 1000 rpm for 5 minutes.
3. The supernatant was discarded, and the complete medium was added and pipetted evenly, 10 μL of cell suspension was taken out and mixed evenly with 10 μL of 0.4% trypan blue, the counting was carried out with a cell counter, and the number and survival rate of cells were recorded;
4. The cell suspension was seeded into a 96-well plate at 5000 cells/80 μL per well;
5. 20 μL of the corresponding 5× compound solution diluted with the medium mentioned above was added to each well and mixed evenly;
6. After 72 hours of incubation, 10 μL of CCK-8 reagent was added to each well and incubated for another 2 hours (the reaction time can be adjusted according to the color depth);
7. The OD value was read at 450 nm on a multi-function plate reader.
8. Data processing: cell survival rate (%)=[(As−Ab)/(Ac−Ab)]*100%
As: OD value of assay well (medium containing cells, CCK-8, compound),
Ac: OD value of control well (medium containing cells, CCK-8),
Ab: OD value of blank well (CCK-8, medium without cell and compound),
The values were then imported into Graphpad Prism5 software for curve fitting, and IC50 was calculated.
Table 3 lists the assay results of the inhibitory activity of some compounds disclosed herein on the proliferation of the MHCC97H cell line.
Take `COc1cc2nccc(Oc3ccc(NC(=O)C4(C(=O)Nc5ccc(F)cc5)CC4)cc3)c2c2c1OCCO2` [Example 1, N-(4-fluorophenyl)-N-(4-((5-methoxy-2,3-dihydro-[1,4]dioxino[2,3-f]quinolin-10-yl)oxy)phenyl)cyclopropan-1,1-dicarboxamide]: the IC50 (as a rule, the point on the concentration scale where inhibition reaches its midpoint) was < 50 nM.
The value for `COc1cc2nccc(Oc3ccc(NC(=O)C4(C(=O)Nc5ccc(F)cc5)CC4)cc3F)c2c2c1OCCO2` [Example 2, N-(3-fluoro-4-((5-methoxy-2,3-dihydro-[1,4]dioxino[2,3-f]quinolin-10-yl)oxy)phenyl)-N-(4-fluorophenyl)cyclopropan-1,1-dicarboxamide] was < 50 nM.
In the case of `COc1cc2nccc(Oc3ccc(NC(=O)C4(C(=O)Nc5ccc(F)cc5)CC4)c(F)c3)c2c2c1OCCO2` [Example 3, N-(2-fluoro-4-((5-methoxy-2,3-dihydro-[1,4]dioxino[2,3-f]quinolin-10-yl)oxy)phenyl)-N-(4-fluorophenyl)cyclopropan-1,1-dicarboxamide], the IC50 is < 50 nM.
Next, `O=C(Nc1ccc(F)cc1)C1(C(=O)Nc2ccc(Oc3ccnc4cc(OCCCN5CCOCC5)c5c(c34)OCCO5)cc2)CC1` [Example 4, N-(4-fluorophenyl)-N-(4-((5-(3-morpholinopropoxy)-2,3-dihydro-[1,4]dioxino[2,3-f]quinolin-10-yl)oxy)phenyl)cyclopropan-1,1-dicarboxamide]: < 50 nM; `O=C(Nc1ccc(F)cc1)C1(C(=O)Nc2ccc(Oc3ccnc4cc(OCCCN5CCOCC5)c5c(c34)OCCO5)c(F)c2)CC1` [Example 5, N-(3-fluoro-4-((5-(3-morpholinopropoxy)-2,3-dihydro-[1,4]dioxino[2,3-f]quinolin-10-yl)oxy)phenyl)-N-(4-fluorophenyl)cyclopropan-1,1-dicarboxamide]: < 50 nM.
Take `O=C(Nc1ccc(F)cc1)C1(C(=O)Nc2ccc(Oc3ccnc4cc(OCCCN5CCOCC5)c5c(c34)OCCO5)cc2F)CC1` [Example 6, N-(2-fluoro-4-((5-(3-morpholinopropoxy)-2,3-dihydro-[1,4]dioxino[2,3-f]quinolin-10-yl)oxy)phenyl)-N-(4-fluorophenyl)cyclopropan-1,1-dicarboxamide]: the IC50 is < 50 nM.
For `CCOc1cc2nccc(Oc3ccc(NC(=O)C4(C(=O)Nc5ccc(F)cc5)CC4)cc3F)c2c2c1OCCO2` [Example 7, N-(4-((5-ethoxy-2,3-dihydro-[1,4]dioxino[2,3-f]quinolin-10-yl)oxy)-3-fluorophenyl)-N-(4-fluorophenyl)cyclopropan-1,1-dicarboxamide], the IC50 was < 50 nM.
Turning to `CN(C)CCCOc1cc2nccc(Oc3ccc(NC(=O)C4(C(=O)Nc5ccc(F)cc5)CC4)cc3F)c2c2c1OCCO2` [Example 8, N-(4-((5-(3-(dimethylamino)propoxy)-2,3-dihydro-[1,4]dioxino[2,3-f]quinolin-10-yl)oxy)-3-fluorophenyl)-N-(4-fluorophenyl)cyclopropan-1,1-dicarboxamide], the IC50 was < 50 nM.
Turning to `O=C(Nc1ccc(F)cc1)C1(C(=O)Nc2ccc(Oc3ccnc4cc(OCCCN5CCCCC5)c5c(c34)OCCO5)c(F)c2)CC1` [Example 9, N-(4-((5-(3-(piperidin-1-yl)propoxy)-2,3-dihydro-[1,4]dioxino[2,3-f]quinolin-10-yl)oxy)-3-fluorophenyl)-N-(4-fluorophenyl)cyclopropan-1,1-dicarboxamide], the IC50 is < 50 nM.
Regarding `COCCOc1cc2nccc(Oc3ccc(NC(=O)C4(C(=O)Nc5ccc(F)cc5)CC4)cc3F)c2c2c1OCCO2` [Example 10, N-(3-fluoro-4-((5-(2-methoxyethoxy)-2,3-dihydro-[1,4]dioxino[2,3-f]quinolin-10-yl)oxy)phenyl)-N-(4-fluorophenyl)cyclopropan-1,1-dicarboxamide], the IC50 was < 50 nM.
Regarding `O=C(Nc1ccc(F)cc1)C1(C(=O)Nc2ccc(Oc3ccnc4cc(OCCCO)c5c(c34)OCCO5)c(F)c2)CC1` [Example 13, N-(3-fluoro-4-((5-(3-hydroxypropoxy)-2,3-dihydro-[1,4]dioxino[2,3-f]quinolin-10-yl)oxy)phenyl)-N-(4-fluorophenyl)cyclopropan-1,1-dicarboxamide], the IC50 is < 50 nM.
The value for `COCCCOc1cc2nccc(Oc3ccc(NC(=O)C4(C(=O)Nc5ccc(F)cc5)CC4)cc3F)c2c2c1OCCO2` [Example 14, N-(3-fluoro-4-((5-(3-methoxypropoxy)-2,3-dihydro-[1,4]dioxino[2,3-f]quinolin-10-yl)oxy)phenyl)-N-(4-fluorophenyl)cyclopropan-1,1-dicarboxamide] was < 50 nM; that for `COCCN(C)CCCOc1cc2nccc(Oc3ccc(NC(=O)C4(C(=O)Nc5ccc(F)cc5)CC4)cc3F)c2c2c1OCCO2` [Example 15, N-(3-fluoro-4-((5-(3-((2-methoxyethyl)(methyl)amino)propoxy)-2,3-dihydro-[1,4]dioxino [2,3-f]quinolin-10-yl)oxy)phenyl)-N-(4-fluorophenyl)cyclopropan-1,1-dicarboxamide] was < 50 nM; that for `O=C(Nc1ccc(F)cc1)C1(C(=O)Nc2ccc(Oc3ccnc4cc(OC5CCOC5)c5c(c34)OCCO5)c(F)c2)CC1` (centres unmarked) [Example 17, N-(3-fluoro-4-((5-((tetrahydrofuran-3-yl)oxy)-2,3-dihydro-[1,4]dioxino[2,3-f]quinolin-10-yl)oxy)phenyl)-N-(4-fluorophenyl)cyclopropan-1,1-dicarboxamide] was < 50 nM.
The value for `CN1CCN(CCCOc2cc3nccc(Oc4ccc(NC(=O)C5(C(=O)Nc6ccc(F)cc6)CC5)cc4F)c3c3c2OCCO3)CC1` [Example 21, N-(4-((5-(3-(4-methylpiperazin-1-yl)propoxy)-2,3-dihydro-[1,4]dioxino[2,3-f]quinolin-10-yl)oxy)-3-fluorophenyl)-N-(4-fluorophenyl)cyclopropan-1,1-dicarboxamide] was < 50 nM; that for `CC1(O)CCN(CCCOc2cc3nccc(Oc4ccc(NC(=O)C5(C(=O)Nc6ccc(F)cc6)CC5)cc4F)c3c3c2OCCO3)CC1` [Example 22, N-(3-fluoro-4-((5-(3-(4-hydroxy-4-methylpiperidin-1-yl)propoxy)-2,3-dihydro-[1,4]dioxino[2,3-f]quinolin-10-yl)oxy)phenyl)-N-(4-fluorophenyl)cyclopropan-1,1-dicarboxamide] was < 50 nM; that for `CN(CCCOc1cc2nccc(Oc3ccc(NC(=O)C4(C(=O)Nc5ccc(F)cc5)CC4)cc3F)c2c2c1OCCO2)C1CCC1` [Example 23, N-(4-((5-(3-(cyclobutyl(methyl)amino)propoxy)-2,3-dihydro-[1,4]dioxino[2,3-f]quinolin-10-yl)oxy)-3-fluorophenyl)-N-(4-fluorophenyl)cyclopropan-1,1-dicarboxamide] was < 50 nM.
As to `O=C(Nc1ccc(F)cc1)C1(C(=O)Nc2ccc(Oc3ccnc4cc(OCCCN5CCS(=O)(=O)CC5)c5c(c34)OCCO5)c(F)c2)CC1` [Example 24, N-(4-((5-(3-(1,1-dioxothiomorpholin-4-yl)propoxy)-2,3-dihydro-[1,4]dioxino[2,3-f]quinolin-10-yl)oxy)-3-fluorophenyl)-N-(4-fluorophenyl)cyclopropan-1,1-dicarboxamide], the 50% inhibitory concentration (IC50) was < 50 nM.
As to `O=C(Nc1ccc(F)cc1)C1(C(=O)Nc2ccc(Oc3ccnc4cc(OCCCN5CCCC5)c5c(c34)OCCO5)c(F)c2)CC1` [Example 25, N-(3-fluoro-4-((5-(3-(pyrrolidin-1-yl)propoxy)-2,3-dihydro-[1,4]dioxino[2,3-f]quinolin-10-yl)oxy)phenyl)-N-(4-fluorophenyl)cyclopropan-1,1-dicarboxamide], the half-maximal inhibitory concentration (IC50) is < 50 nM.
Turning to `N#CCCCOc1cc2nccc(Oc3ccc(NC(=O)C4(C(=O)Nc5ccc(F)cc5)CC4)cc3F)c2c2c1OCCO2` [Example 26, N-(3-fluoro-4-((5-(3-cyanopropoxy)-2,3-dihydro-[1,4]dioxino[2,3-f]quinolin-10-yl)oxy)phenyl)-N-(4-fluorophenyl)cyclopropan-1,1-dicarboxamide], the IC50 was < 50 nM.
On to `CN(C)CCCCCCOc1cc2nccc(Oc3ccc(NC(=O)C4(C(=O)Nc5ccc(F)cc5)CC4)cc3F)c2c2c1OCCO2` [Example 27, N-(4-((5-((6-(dimethylamino)hexyl)oxy)-2,3-dihydro-[1,4]dioxino[2,3-f]quinolin-10-yl)oxy)-3-fluorophenyl)-N-(4-fluorophenyl)cyclopropan-1,1-dicarboxamide], for which the IC50 was < 50 nM.
Take `O=C(Nc1ccc(F)cc1)C1(C(=O)Nc2ccc(Oc3ccnc4cc(OC5COC5)c5c(c34)OCCO5)c(F)c2)CC1` [Example 28, N-(3-fluoro-4-((5-(oxetan-3-yloxy)-2,3-dihydro-[1,4]dioxino[2,3-f]quinolin-10-yl)oxy)phenyl)-N-(4-fluorophenyl)cyclopropan-1,1-dicarboxamide]: the IC50 was < 50 nM.
Regarding `CC1(C)CCN(CCCOc2cc3nccc(Oc4ccc(NC(=O)C5(C(=O)Nc6ccc(F)cc6)CC5)cc4F)c3c3c2OCCO3)CC1` [Example 29, N-(3-fluoro-4-((5-(3-(4,4-dimethylpiperidin-1-yl)propoxy)-2,3-dihydro-[1,4]dioxino[2,3-f]quinolin-10-yl)oxy)phenyl)-N-(4-fluorophenyl)cyclopropan-1,1-dicarboxamide], the IC50 is < 50 nM.
